According to US20070116822A1, “HIGH-POTENCY SWEETENER COMPOSITION WITH SAPONIN AND COMPOSITIONS SWEETENED THEREWITH” (THE COCA-COLA COMPANY, priority 2005, published 2007):

Columns and labels:
[1] = Sensory evaluation of sweetness linger by a panel of experts; format: in vivo; parameters: key: 0=no sweetness linger; 1=very slight sweetness linger; 2=slight sweetness linger; 3=moderate sweetness linger; 4=moderately high sweetness linger; 5=high sweetness linger; conditions: for Sweetness linger rating: scale 0-5; for Sweetness Linger rating (defined scale anchors): rating defined for the protocol, REBA control sample 500 ppm
Method: As used herein, the phrases “sugar-like characteristic,” “sugar-like taste,” “sugar-like sweet,” “sugary,” and “sugar-like” are synonymous. […] These characteristics are dimensions in which the taste of sucrose is different from the tastes of natural and synthetic high-potency sweeteners. Whether or not a characteristic is more sugar-like is determined by expert sensory panel assessments of sugar and compositions comprising at least one natural and/or synthetic high-potency sweetener, both with and without a sweet taste improving composition. Such assessments quantify similarities of the characteristics of compositions comprising at least one natural and/or synthetic high-potency sweetener, both with and without a sweet taste improving composition, with those comprising sugar. Suitable procedures for determining whether a composition has a more sugar-like taste are well known in the art.
In a particular embodiment, a panel of assessors is used to measure the reduction of sweetness linger. Briefly described, a panel of assessors (generally 8 to 12 individuals) is trained to evaluate sweetness perception and measure sweetness at several time points from when the sample is initially taken into the mouth until 3 minutes after it has been expectorated. […] A decrease in score for a time point measured after the sample has cleared the mouth indicates there has been a reduction in sweetness perception.
The panel of assessors may be trained using procedures well known to those of ordinary skill in the art. In a particular embodiment, the panel of assessors may be trained using the Spectrum™ Descriptive Analysis Method (Meilgaard et al, Sensory Evaluation Techniques, 3rd edition, Chapter 11). Desirably, the focus of training should be the recognition of and the measure of the basic tastes; specifically, sweet. In order to ensure accuracy and reproducibility of results, each assessor should repeat the measure of the reduction of sweetness linger about three to about five times per sample, taking at least a five minute break between each repetition and/or sample and rinsing well with water to clear the mouth.
Generally, the method of measuring sweetness comprises taking a 10 mL sample into the mouth, holding the sample in the mouth for 5 seconds and gently swirling the sample in the mouth, rating the sweetness intensity perceived at 5 seconds, expectorating the sample (without swallowing following expectorating the sample), rinsing with one mouthful of water (e.g., vigorously moving water in mouth as if with mouth wash) and expectorating the rinse water, rating the sweetness intensity perceived immediately upon expectorating the rinse water, waiting 45 seconds and, while wating those 45 seconds, identifying the time of maximum perceived sweetness intensity and rating the sweetness intensity at that time (moving the mouth normally and swallowing as needed), rating the sweetness intensity after another […], rating the sweetness intensity after another 60 seconds (cumulative 120 seconds after rinse), and rating the sweetness intensity after still another 60 seconds (cumulative 180 seconds after rinse). Between samples take a 5 minute break, rinsing well with water to clear the mouth.
Sensory evaluation of the samples prepared in Example Set G was carried out under the following protocol, similar to that described hereinabove. In this test protocol, none of the samples were swallowed. All samples were expectorated and the mouth was rinsed with water after the tasting. Immediately upon sensing maximal sweetness, the sample was expectorated, the mouth was rinsed with water and the rate of sweetness decay (“Sweetness Linger”) was measured, where attention was focused on the sweetness 3-4 min after the water rinse. After sample tasting was complete, a salty oyster cracker was chewed followed by a water rinse, and at least 5 minutes followed before tasting the next sample. […]

[2] = format: physicochemical
Method: A solution of rebaudioside A (>97% pure by HPLC ) was prepared in double distilled water (12.5 gm in 50 mL, 25% concentration) by stirring the mixture at 40° C. for 5 minutes. An amorphous form of rebaudioside A was formed by immediately using the clear solution for spray drying with the Lab-Plant spray drier SD-04 instrument (Lab-Plant Ltd., West Yorkshire, U.K.). The solution was fed through the feed pump into the nozzle atomizer which atomized it into a spray of droplets with the help of a constant flow of nitrogen/air. […] This dry powder (11-12 g, H2O 6.74%) was discharged continuously from the drying chamber and was collected in a bottle.

[3] = Example Set G, citric acid/potassium citrate composition equivalent to diet lemon-lime beverage, sweetness 3-4 min after water rinse
[4] = Example Set H, carbon-treated water, phosphoric acid (75%) to pH 2.4-2.5, protocol of Example Set G

| Molecule | Sweetness linger rating [1, 3] | Sweetness linger rating [1, 4] | Sweetness Linger rating (defined scale anchors) [1] | Solubility in water at room temperature [2] |
| --- | --- | --- | --- | --- |
| rebaudioside A | 5 | 5 | 5 |  |
| rebaudioside A [Form 4] |  |  |  | > 35.0% |
| OC[C@H]1O[C@@](CO)(O[C@H]2O[C@H](CO)[C@@H](O)[C@H](O)[C@H]2O)[C@@H](O)[C@@H]1O [sugar, sucrose] | 0 | 0 | 0 |  |
